This note sets out measurements from US20060100431A1, “Biologically active compounds” (Amura Therapeutics Limited, priority 2002, published 2006).

For test [1], the target named is Wild-type cruzipain (Trypanosoma cruzi, UniProt P25779). The test can be described thus: Trypanosoma cruzi cruzipain peptidase activity assay (Ki). The format is biochemical. In outline:
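Native cruzipain from T. cruzi Dm28 epimastigotes, 2.5 nM, in 100 mM sodium phosphate pH 6.75 with 1 mM EDTA and 10 mM L-cysteine, 25 °C, DMSO <1%. Rates taken from continuous fluorogenic substrate read; Ki by regression assuming reversible pure-competitive inhibition.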

Test [2] addresses T1, human cathepsin B (Homo sapiens, UniProt P07858).
T1 construct: purchased CN Biosciences
Description: Cathepsin B peptidase activity assay (Ki). It counts as biochemical. The note with it: read-out: Ki, inhibitors of cathepsin B. In outline: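 Buffer: 10 mM bis-tris-propane pH 6.5, 1 mM EDTA, 5 mM 2-mercaptoethanol, 1 mM CaCl2; DMSO <1%. Ki assumed reversible, pure-competitive, from Ki^app=Ki(1+[So]/KM^app) by non-linear regression.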

Where [3] appears, read: read-out: Ki, inhibitors of cruzain and cruzipains.
The mark [4] stands for this setting: Table 5, read-out: Ki Cruzipain.

Where two headings read alike, the source gives them in different places. Where only a bound is given, the exact number is not on record here.

Sequence of Wild-type cruzipain (P25779 whole entry): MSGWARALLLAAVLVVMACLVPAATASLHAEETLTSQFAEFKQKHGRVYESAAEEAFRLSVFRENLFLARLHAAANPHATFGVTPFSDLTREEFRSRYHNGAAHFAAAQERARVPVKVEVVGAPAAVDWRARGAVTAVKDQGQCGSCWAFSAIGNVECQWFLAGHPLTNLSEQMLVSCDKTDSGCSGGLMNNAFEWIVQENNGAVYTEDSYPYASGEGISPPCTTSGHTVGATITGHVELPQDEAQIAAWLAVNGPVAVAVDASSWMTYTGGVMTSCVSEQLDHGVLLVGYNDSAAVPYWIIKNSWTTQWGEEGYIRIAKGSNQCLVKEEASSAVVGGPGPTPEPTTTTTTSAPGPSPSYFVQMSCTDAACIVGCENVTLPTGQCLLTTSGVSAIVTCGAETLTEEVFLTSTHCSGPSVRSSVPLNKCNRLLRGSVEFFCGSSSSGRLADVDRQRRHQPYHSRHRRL

In general, Ki refers to the dissociation constant of the complex between target and ligand, obtained from inhibition or displacement. On to `CC(C)CC(NC(=O)c1ccc(N)cc1)C(=O)N1NC[C@@H]2[C@H]1C(=O)CN2C(=O)c1ccccc1` (stereo partly drawn) [Example 249b, (3aR,6aS)-4-amino-N-[1-(4-benzoyl-6-oxo-hexahydropyrrolo[3,2-c]pyrazole-1-carbonyl)-3-methylbutyl)benzamide], for which the Ki in test [1] (setting [3]) and in test [2] was below 5 µM throughout.

As for `O=C(N[C@@H](CC1CCCCC1)C(=O)N1CC[C@@H]2[C@H]1C(=O)CN2C(=O)c1ccccc1)c1ccsc1` [Example 250, (3aR,6aS)-Thiophene-3-carboxylic acid [(1S)-2-(4-benzoyl-6-oxo-hexahydro-pyrrolo[3,2-b]pyrrole-1-yl)-1-cyclohexylmethyl-2-oxo-ethyl]-amide], the Ki in test [1] (setting [4]) was above 5 µM.

Turning to `CC(C)C[C@H](NC(=O)c1cccc(N(C)C)c1)C(=O)N1CC[C@@H]2[C@H]1C(=O)CN2C(=O)c1cccc(S(C)(=O)=O)c1` [Example 59, (3aR,6aS)-3-Dimethylamino-N-{(1S)-1-[4-(3-methanesulfonyl-benzoyl)-6-oxo-hexahydro-pyrrolo[3,2-b]pyrrole-1-carbonyl]-3-methyl-butyl}-benzamide], the Ki in test [1] (setting [3]) and in test [2] was below 5 µM in each case.

Take `CC(C)C[C@H](NC(=O)c1ccc2c(c1)CCCN2)C(=O)N1CC[C@@H]2[C@H]1C(=O)CN2C(=O)c1ccccc1` [Example 87, (3aR,6aS)-1,2,3,4-Tetrahydro-quinoline-6-carboxylic acid [(1S)-1-(4-benzoyl-6-oxo-hexahydro-pyrrolo[3,2-b]pyrrole-1-carbonyl)-3-methyl-butyl]-amide]: the Ki in test [1] (setting [3]) and in test [2] was below 5 µM each time.

With `CC(C)C[C@H](NC(=O)c1ccc(N(C)C)cc1)C(=O)N1CC[C@@H]2[C@H]1C(=O)CN2C(=O)c1ccccc1` [Example 14, (3aR,6aS)-N-[(1S)-1-(4-Benzoyl-6-oxo-hexahydro-pyrrolo[3,2-b]pyrrole-1-carbonyl)-3-methyl-butyl]-4-dimethylamino-benzamide], the Ki in test [1] (setting [3]) and in test [2] was below 5 µM each time.

As to `CC(C)(C)c1ccc(C(=O)N[C@@H](Cc2ccc(O)cc2)C(=O)N2CC[C@@H]3[C@H]2C(=O)CN3C(=O)c2ccccc2)cc1` [Example 346, (3aR,6aS)-N-[(1S)-2-(4-Benzoyl-6-oxo-hexahydro-pyrrolo[3,2-b]pyrrol-1-yl)-1-(4-hydroxybenzyl)-2-oxo-ethyl]-4-tert-butyl-benzamide], the Ki in test [1] (setting [4]) was below 0.2 µM.

Consider `CC(=O)N[C@@H](CC(C)C)C(=O)N1CC(=O)[C@@H]2[C@H]1CCN2C(=O)[C@H](CC(C)C)NC(=O)c1ccc(N(C)C)cc1` [Example 151, (3aR,6aS)-N-{(1S)-1-[4-((2S)-2-Acetylamino-4-methyl-pentanoyl)-6-oxo-hexahydro-pyrrolo[3,2-b]pyrrole-1-carbonyl]-3-methyl-butyl}-4-dimethylamino-benzamide], for which the inhibition constant Ki in test [1] (setting [3]) and in test [2] was below 5 µM in each case.

As for `CC(C)C[C@H](NC(=O)c1ccc(-n2cccn2)cc1)C(=O)N1CC[C@@H]2[C@H]1C(=O)CN2C(=O)c1ccccc1` [Example 91, (3aR,6aS)-N-[(1S)-1-(4-Benzoyl-6-oxo-hexahydro-pyrrolo[3,2-b]pyrrole-1-carbonyl)-3-methyl-butyl]-4-pyrazol-1-yl-benzamide], the Ki in test [1] (setting [3]) and in test [2] was below 5 µM in each case.

On to `O=C(N[C@@H](Cc1ccc(O)cc1)C(=O)N1CC[C@@H]2[C@H]1C(=O)CN2C(=O)c1ccccc1)c1cccc2ccccc12` [Example 296, (3aR,6aS)-Naphthalene-1-carboxylic acid [(1S)-2-(4-benzoyl-6-oxo-hexahydro-pyrrolo[3,2-b]pyrrole-1-yl)-1-(4-hydroxybenzyl)-2-oxo-ethyl]-amide], for which the Ki in test [1] (setting [4]) is above 1 µM; in test [1] (setting [3]) it was below 5 µM; in test [2] it was below 5 µM.

In the case of `CC(C)C[C@H](NC(=O)c1cccc(N2CCNCC2)c1)C(=O)N1CC[C@@H]2[C@H]1C(=O)CN2C(=O)c1ccccc1` [Example 247, (3aR,6aS)-N-[(1S)-1-(4-Benzoyl-6-oxo-hexahydro-pyrrolo[3,2-b]pyrrole-1-carbonyl)-3-methyl-butyl]-3-piperazin-1-yl-benzamide], the Ki in test [1] (setting [3]) and in test [2] was below 5 µM each time.

In the case of `CC(C)C[C@H](NC(=O)c1ccc(OC(F)(F)F)cc1)C(=O)N1CC[C@@H]2[C@H]1C(=O)CN2C(=O)c1ccccc1` [Example 173, (3aR,6aS)-N-[(1S)-1-(4-Benzoyl-6-oxo-hexahydro-pyrrolo[3,2-b]pyrrole-1-carbonyl)-3-methyl-butyl]-4-trifluoromethoxy-benzamide], the Ki in test [1] (setting [3]) and in test [2] was below 5 µM throughout.

Regarding `CC(C)C[C@H](NC(=O)c1ccc(-c2cccs2)cc1)C(=O)N1CC[C@@H]2[C@H]1C(=O)CN2C(=O)c1ccccc1` [Example 2, (3aR,6aS)-N-[(1S)-1-(4-Benzoyl-6-oxo-hexahydro-pyrrolo[3,2-b]pyrrole-1-carbonyl)-3-methyl-butyl]-4-thiophen-2-yl-benzamide], the Ki was above 0.3 µM in test [1] (setting [4]), below 5 µM in test [1] (setting [3]) and below 5 µM in test [2].

Turning to `CC(C)C[C@H](NC(=O)c1ccc(N2CCNCC2)cc1)C(=O)N1CC[C@@H]2[C@H]1C(=O)CN2C(=O)c1ccccc1` [Example 194, (3aR,6aS)-N-[(1S)-1-(4-Benzoyl-6-oxo-hexahydro-pyrrolo[3,2-b]pyrrole-1-carbonyl)-3-methyl-butyl]-4-piperazin-1-yl-benzamide], the Ki in test [1] (setting [3]) and in test [2] was below 5 µM throughout.

For `CC(C)C[C@H](NC(=O)c1cc2ccccc2s1)C(=O)N1CC[C@@H]2[C@H]1C(=O)CN2C(=O)c1ccccc1` [Example 7, (3aR,6aS)-Benzo[b]thiophene-2-carboxylic acid [(1S)-1-(4-benzoyl-6-oxo-hexahydro-pyrrolo[3,2-b]pyrrole-1-carbonyl)-3-methyl-butyl]-amide], the Ki in test [1] (setting [3]) and in test [2] was below 5 µM throughout.

As to `CC(C)C[C@H](NC(=O)c1ccc(N(C)C)cc1)C(=O)N1CC[C@@H]2[C@H]1C(=O)CN2C(=O)[C@@H](NC(=O)OCc1ccccc1)C(C)C` [Example 158, (3aS,6aR)-((S)-1-{4-[(2S)-2-(4-Dimethylamino-benzoylamino)-4-methyl-pentanoyl]-3-oxo-hexahydro-pyrrolo[3,2-b]pyrrole-1-carbonyl}-2-methyl-propyl)-carbamic acid benzyl ester], the Ki in test [1] (setting [3]) and in test [2] was below 5 µM each time.

Take `CC(C)C[C@H](NC(=O)c1ccc(C(C)(C)C)cc1)C(=O)N1NC[C@@H]2[C@H]1C(=O)CN2C(=O)c1ccccc1` [Example 249a, (3aR,6aS)-N-[(1S)-1-(4-benzoyl-6-oxo-hexahydropyrrolo[3,2-c]pyrazole-1-carbonyl)-3-methylbutyl]-4-tert-butylbenzamide]: the inhibition constant (Ki) in test [1] (setting [3]) and in test [2] was below 5 µM each time.

Consider `CC(C)C[C@H](NC(=O)c1ccc(N(C)C)cc1)C(=O)N1CC[C@@H]2[C@H]1C(=O)CN2C(=O)c1csc2ccccc12` [Example 103, (3aR,6aS)-N-{(1S)-1-[4-(Benzo[b]thiophene-3-carbonyl)-6-oxo-hexahydro-pyrrolo[3,2-b]pyrrole-1-carbonyl]-3-methyl-butyl}-4-dimethylamino-benzamide], for which the Ki in test [1] (setting [3]) and in test [2] was below 5 µM in each case.

As to `CC(C)C[C@H](NC(=O)c1ccc(N)cc1)C(=O)N1NC[C@@H]2[C@H]1C(=O)CN2C(=O)c1cccc(S(C)(=O)=O)c1` [Example 249c, (3aR,6aS)-4-amino-N-{(1S)-1-[4-(3-methanesulfonylbenzoyl)-6-oxo-hexahydropyrrolo [3,2-c]pyrazole-1-carbonyl]-3-methylbutyl}benzamide], the Ki in test [1] (setting [3]) and in test [2] was below 5 µM throughout.

For `CC(C)C[C@H](NC(=O)c1ccc2ncsc2c1)C(=O)N1CC[C@@H]2[C@H]1C(=O)CN2C(=O)c1ccccc1` [Example 90, (3aR,6aS)-Benzothiazole-6-carboxylic acid [(1S)-1-(4-benzoyl-6-oxo-hexahydro-pyrrolo[3,2-b]pyrrole-1-carbonyl)-3-methyl-butyl]-amide], the inhibitory constant (Ki) in test [1] (setting [3]) and in test [2] was below 5 µM each time.
